These results are taken from a melting point compilation (Tetko et al.; mined from patent text by program, amines drawn as free bases though some values may be those of a salt).

In general, melting point refers to the temperature, or range, at which the solid turns liquid. In the case of `Cc1cc(-c2ncn3c(C(F)(F)F)cc(-c4ccc(Cl)c(C)c4)nc23)ccn1`, the melting point came out at 246 °C.

Compound `CC(C)(C)N1CCN(c2cc3c(cc2F)c(=O)c(C(=O)O)cn3C(C)(C)C)CC1` had a melting point of more than 270 °C.

In turn, `CC1(C)CN=C2C(=O)c3cc(S(=O)(=O)N4CCc5ccccc54)ccc3N2C1` registered a melting point of 170 to 171 °C.

Consider `Cc1cc(SC(C)CC(Sc2cc(C)c(O)c(C(C)(C)C)c2)Sc2cc(C)c(O)c(C(C)(C)C)c2)cc(C(C)(C)C)c1O` (stereo not given), for which the melting point is 65 to 69 °C.

`CNS(=O)(=O)c1cc(S(=O)(=O)NC)c(C(Cl)=C(Cl)Cl)cc1N` registered a melting point of 211 to 212 °C.

In turn, `COC(=O)C1=C(C)NC(C)=C(C)C1c1ccccc1` (stereo not given) showed a melting point of 120 °C.

On to `CCOC(=O)N1C(=O)C2(COc3cc4c(cc32)OCCO4)c2ccccc21` (stereo not given), for which the melting point was 198 to 200 °C.

In turn, `COc1ccc(SCCCCNC(P(=O)(O)O)P(=O)(O)O)cc1` registered a melting point of 188 to 189 °C.

For the compound `CC#CCOc1ccc(S(=O)(=O)C2(C(=O)O)CCN(Cc3ccc(Cl)c(Cl)c3)CC2)cc1`, the melting point worked out at 213 °C.

Turning to `CC(=NNC(=N)N)c1sc(-c2ccc(C3CCCCC3)cc2)nc1C`, the melting point fell in the range of 273 to 276 °C.

Take `COC(=O)CCSCC(=O)c1cc2c(cc1Cl)NC(=O)C2`: the melting point lay within 75 to 77 °C.

Consider `C/C(=C(\Br)C=O)c1ccc2c(c1)C(C)(C)CCC2(C)C`, for which the melting point was 115 to 117 °C.

On to `Cc1ncc(C#N)c(Nc2cccc3[nH]ccc23)c1I`, for which the melting point lay within 192 to 194 °C.

Regarding `CCOC(=O)c1cnc2c3ccccc3c(OC)cn2c1=O`, the melting point is 190 to 193 °C.

`Nc1ccc(CCN2CCN(c3ccc(N)cc3Cl)CC2)cc1` showed a melting point of 109 to 112 °C.

On to `CC(=O)NC1CCN(c2ccc(C#N)c3ccccc23)C1` (stereo not given), for which the melting point lay in the range of 154 to 155 °C.

For `CC(CSSc1nc2ccccc2s1)SSc1nc2ccccc2s1` (stereo not given), the melting point lay in the range of 63 to 65 °C.

The compound `O=C(NNC(=O)C(O)c1cccc(O)c1)c1c(O)cc(O)cc1Cl` (stereo not given) yielded a melting point of 230 to 231 °C.

For the compound `O=C(c1cc(Cl)ccc1NC(=O)C(Cl)(Cl)Cl)C1CCCCC1`, the melting point lay in the range of 93 to 93.5 °C.

On to `c1ccc(COc2ccc3c(c2)OC[C@@H](c2ccccc2)[C@H]3c2ccc(OCCCCCCN3CCOCC3)cc2)cc1` (racemic), for which the melting point was in the range of 85.7 to 87.5 °C.

As for `CN1CN(C(=O)c2c(F)cccc2F)C(=O)N(c2ccc(SC(F)(F)F)cc2F)C1`, the melting point was in the range of 92 to 94 °C.

Turning to `CCCCc1nc2cccc(CC(=O)O)c2n1Cc1ccccc1Cl`, the melting point is 216 to 217 °C.

`CC1(C)[C@H](Cl)CC[C@]2(CI)OC(=O)C[C@H]12` yielded a melting point of 127 to 128 °C.

For the compound `CC(C)c1cc(C(=O)Nc2cc(F)c(C(=O)O)c(F)c2)sc1C(C)C`, the melting point is 218 to 219 °C.

Regarding `COc1cc(C(=O)C#Cc2ccccc2)cc(OC)c1OC`, the melting point is 94 to 96 °C.

`CN1CC(c2ccc(Cl)cc2)C(=O)C(c2cccc(C(F)(F)F)c2)C1` (stereo not given) displayed a melting point of 116 °C.

`O=C1Nc2ccc(F)c(F)c2C1c1ncnc2nn(C3CCCC3)cc12` (stereo not given): the melting point lay within 280 to 284 °C.

Regarding `CCOC(=O)c1cn2c(cc(OC(C)C)c3ccccc32)n1`, the melting point lay within 127 to 129 °C.

For the compound `O=C(NC(=O)c1cccs1)NC1CN2CCC1CC2` (stereo not given), the melting point lay within 232 to 233 °C.

As to `COc1cc(C)nc(NC(=O)NS(=O)(=O)c2ccsc2C(=O)N2CCCC2=O)n1`, the melting point was in the range of 184 to 185 °C.

Turning to `O=C(O)C1C=Nc2c(ccc3ncccc23)N1O` (stereo not given), the melting point is more than 300 °C.

Regarding `NCC(O)C1COc2ccccc2O1` (stereo not given), the melting point lay in the range of 86 to 88 °C.

As to `CC1(C)C(=O)N(c2ccc(C#N)c(C(F)(F)F)c2)C(=O)N1CCCCO`, the melting point was 102 to 103 °C.

Compound `CCOC(=O)CCn1ccn(C2CCc3ccccc3C2)c1=S` (stereo not given) showed a melting point of 71 to 73 °C.

As to `CCOCc1nc2c(N)nc3ccccc3c2n1CCOCCNS(C)(=O)=O`, the melting point was 152 to 155 °C.
